Experimental data: US9927437B2, “Treating neurodegenerative disease” (THE BRIGHAM AND WOMEN'S HOSPITAL, INC., priority 2013, dated 2018)

How the values were obtained:
ccl2 promoter = assay: ChIP of NF-κB and IRF-1 at the ccl2 promoter in primary astrocytes; type: cell-based, mouse
From the text: FIGS. 4a-m. B4GALT6 regulates ccl2 transcriptional activity in astrocytes. (a) Murine ccl2 promoter. (b) Luciferase activity in 293T cells transfected with the ccl2 luciferase reporter plus one of the following constructs encoding IRF-1, p65 or an empty control vector (Empty). Results are relative to secreted alkaline phosphatase activity, presented as fold induction from empty vector. Data from three independent experiments, statistical analysis by Student's t-test. (c) ChIP analysis of the interaction of NF-κB, and IRF-1 with the ccl2 promoter in primary cultured astrocytes, pre-treated with PDMP and LacCer and activated with LPS/IFNγ (as in FIG. 3), 2 hours following LPS/IFNγ induction. (d-h) Recruitment of inflammatory monocytes (defined either as of CD11b^+ Ly6C^high or CD11b^+CD45^high cells) to the CNS of EAE NOD mice treated with PDMP or vehicle, as in (FIG. 1k), analyzed by flow cytometry and presented as cell frequency (e, g) and total cell numbers (f, h). Representative data of three independent experiments. […] (i) The frequency and number of CD11b^+ Ly6C^high monocytes as determined in the CNS 10 days after the i.c.v. injection of astrocytes-specific shRNA lentivirus as in (FIG. 3j). […] (j) monocytes were pre-treated for 1 h with PDMP, LacCer, both (LacCer+PDMP), or vehicle, and monocytes chemotaxis was measured using a transwell chamber system. […]

primary mouse microglia = assay: Viability assay, microglia; type: cell-based; details: absence of astrocytes, LPS/IFNγ
From the text: FIGS. 5a-m. B4GALT6 in astrocytes regulates the activation of microglia and CNS-infiltrating monocytes. (a) Heatmap depicting mRNA expression, as determined by nCounter Nanostring analysis, in microglia from naïve or EAE NOD mice treated with PDMP or vehicle. Representative data of three independent experiments. Statistical analysis by Student's t-test. (b) qPCR analysis of ccl5, il1b, opn, nos2, cd40, and H2-Aa gene expression relative to Gapdh. (c, d) Mean normalized expression of genes associated with M1- or M2-phenotype in microglia (Table 3) (c) and Ly6C^high monocytes (d). Statistical analysis by Student's t-test. (e-h) primary microglia were pre-treated with PDMP, LacCer, or vehicle, followed by activation with LPS/IFNγ for 6 h or left un-treated (control) as in (FIG. 3a). mRNA expression was determined by nCounter Nanostring analysis (e, g), and microglial viability was determined (f, h). Representative data of five independent experiments. […] RNA was harvested from microglia treated in the absence [MG (pure)] or presence [MG (mixed)] of astrocytes and gene expression was analyzed by qPCR for the expression ccl2, ccl5 and nos2 relative to gapdh. […] Microglia were isolated as in (i), and microglial-nos2 expression was determined by qRT relative to gapdh and presented as in (i). […]

| Molecule | recruitment of NF-κB and IRF-1 to the ccl2 promoter (ccl2 promoter; astrocytes activated with LPS/IFNγ, 2 hours) | viability of cultured primary mouse microglia (primary mouse microglia) | recruitment of NF-κB and IRF-1 to the ccl2 promoter, LacCer added to PDMP (ccl2 promoter; LacCer + PDMP, LPS/IFNγ) |
| --- | --- | --- | --- |
| CCCCCCCCCC(=O)N[C@H](CN1CCOCC1)[C@H](O)c1ccccc1 [PDMP, D-threo-1-phenyl-2-decanoylamino-3-morpholino-1-propanol] | arrested | neither the viability nor the response of cultured primary mouse microglia to LPS/IFNγ was affected | – |
| lactosylceramide [LacCer] | – | neither the viability nor the response of cultured primary mouse microglia to LPS/IFNγ was affected | abrogated |
